Literature values, collected in US12508229B2, “Method for preparing stable peptide formulations” (Amphastar Pharmaceuticals, Inc., priority 2019, dated 2025).

aqueous solubility (in words)	Compound	aqueous solubility
–	OC[C@H]1O[C@@H]2O[C@H]3[C@H](O)[C@@H](O)[C@@H](O[C@H]4[C@H](O)[C@@H](O)[C@@H](O[C@H]5[C@H](O)[C@@H](O)[C@@H](O[C@H]6[C@H](O)[C@@H](O)[C@@H](O[C@H]7[C@H](O)[C@@H](O)[C@@H](O[C@H]1[C@H](O)[C@H]2O)O[C@@H]7CO)O[C@@H]6CO)O[C@@H]5CO)O[C@@H]4CO)O[C@@H]3CO [α-CD, α-cyclodextrin]	about 5 wt %
freely soluble in water	OC[C@H]1O[C@@H]2O[C@H]3[C@H](O)[C@@H](O)[C@@H](O[C@H]4[C@H](O)[C@@H](O)[C@@H](O[C@H]5[C@H](O)[C@@H](O)[C@@H](O[C@H]6[C@H](O)[C@@H](O)[C@@H](O[C@H]7[C@H](O)[C@@H](O)[C@@H](O[C@H]8[C@H](O)[C@@H](O)[C@@H](O[C@H]9[C@H](O)[C@@H](O)[C@@H](O[C@H]1[C@H](O)[C@H]2O)O[C@@H]9CO)O[C@@H]8CO)O[C@@H]7CO)O[C@@H]6CO)O[C@@H]5CO)O[C@@H]4CO)O[C@@H]3CO [γ-cyclodextrin]	–
higher aqueous solubility than α-CD	hydroxypropyl β-cyclodextrin [HP-ß-CD]	–
